Results on 16 compounds are retold here after US10513521B2, “Compositions and methods for inhibiting BMP” (The Brigham and Women's Hospital, Inc., priority 2014, dated 2019).

For one assay, the target named is ALK1 (Homo sapiens, UniProt P37023). The experiment in a line: TR-FRET enzymatic ALK kinase assay, ALK1.
The target of another assay is ALK6 (Homo sapiens, UniProt O00238). The experiment in a line: TR-FRET enzymatic ALK kinase assay, ALK6. A general note: Time-resolved FRET reads energy transfer from a long-lived donor to a nearby acceptor.
The target of another assay is T1, ALK2 (Homo sapiens, UniProt Q04771).
T1 sequence (Q04771 21-509): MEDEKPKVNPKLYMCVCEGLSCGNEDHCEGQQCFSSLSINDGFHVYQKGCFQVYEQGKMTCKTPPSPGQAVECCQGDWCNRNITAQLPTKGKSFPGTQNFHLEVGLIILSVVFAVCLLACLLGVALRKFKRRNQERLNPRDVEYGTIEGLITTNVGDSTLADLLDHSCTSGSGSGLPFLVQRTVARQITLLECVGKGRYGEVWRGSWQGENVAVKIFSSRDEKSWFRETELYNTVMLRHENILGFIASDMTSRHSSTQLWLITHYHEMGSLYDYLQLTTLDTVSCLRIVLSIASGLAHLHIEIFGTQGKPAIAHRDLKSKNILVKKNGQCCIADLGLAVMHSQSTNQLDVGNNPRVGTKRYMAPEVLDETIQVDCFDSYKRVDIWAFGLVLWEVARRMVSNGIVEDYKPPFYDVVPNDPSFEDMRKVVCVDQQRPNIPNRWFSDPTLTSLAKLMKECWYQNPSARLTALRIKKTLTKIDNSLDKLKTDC
Put plainly: TR-FRET enzymatic ALK kinase assay, ALK2.

In a further assay the target is T2, ALK5 (Homo sapiens, UniProt P36897).
T2 sequence (P36897 34-503): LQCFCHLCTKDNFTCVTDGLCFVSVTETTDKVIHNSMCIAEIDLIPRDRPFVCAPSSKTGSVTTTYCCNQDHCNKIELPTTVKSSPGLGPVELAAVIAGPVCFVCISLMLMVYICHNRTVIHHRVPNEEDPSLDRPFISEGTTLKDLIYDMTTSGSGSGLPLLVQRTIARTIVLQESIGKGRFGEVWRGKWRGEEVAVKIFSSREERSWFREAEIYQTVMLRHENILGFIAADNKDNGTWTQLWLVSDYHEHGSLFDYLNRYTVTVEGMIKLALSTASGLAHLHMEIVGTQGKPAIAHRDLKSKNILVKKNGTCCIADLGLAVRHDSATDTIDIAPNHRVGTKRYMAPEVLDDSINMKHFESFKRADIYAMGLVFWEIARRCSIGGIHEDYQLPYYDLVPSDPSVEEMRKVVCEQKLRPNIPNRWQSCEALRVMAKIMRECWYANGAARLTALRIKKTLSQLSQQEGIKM
The experiment in a line: TR-FRET enzymatic ALK kinase assay, ALK5.

In the next assay the target is T3, ALK4 (Homo sapiens, UniProt P36896).
T3 sequence (P36896 24-505): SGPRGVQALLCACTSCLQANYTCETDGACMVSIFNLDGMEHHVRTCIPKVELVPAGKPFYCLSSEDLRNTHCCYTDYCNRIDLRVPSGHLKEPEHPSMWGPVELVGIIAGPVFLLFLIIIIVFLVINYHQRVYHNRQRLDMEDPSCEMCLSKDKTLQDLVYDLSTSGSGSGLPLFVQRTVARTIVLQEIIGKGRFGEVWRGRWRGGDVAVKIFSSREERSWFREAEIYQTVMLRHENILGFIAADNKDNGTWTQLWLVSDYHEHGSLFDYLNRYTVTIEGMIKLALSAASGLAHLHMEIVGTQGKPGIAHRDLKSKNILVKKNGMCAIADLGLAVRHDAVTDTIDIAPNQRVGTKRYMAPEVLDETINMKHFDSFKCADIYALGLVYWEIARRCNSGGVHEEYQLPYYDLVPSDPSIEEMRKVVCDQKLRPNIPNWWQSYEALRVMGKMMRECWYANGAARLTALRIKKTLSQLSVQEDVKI
The experiment in a line: TR-FRET enzymatic ALK kinase assay, ALK4.

A further assay has as its target ALK3 (Homo sapiens, UniProt P36894). The experiment in a line: TR-FRET enzymatic ALK kinase assay, ALK3.

SMILES strings stand for the structures.

Chain of ALK6 (O00238 14-502): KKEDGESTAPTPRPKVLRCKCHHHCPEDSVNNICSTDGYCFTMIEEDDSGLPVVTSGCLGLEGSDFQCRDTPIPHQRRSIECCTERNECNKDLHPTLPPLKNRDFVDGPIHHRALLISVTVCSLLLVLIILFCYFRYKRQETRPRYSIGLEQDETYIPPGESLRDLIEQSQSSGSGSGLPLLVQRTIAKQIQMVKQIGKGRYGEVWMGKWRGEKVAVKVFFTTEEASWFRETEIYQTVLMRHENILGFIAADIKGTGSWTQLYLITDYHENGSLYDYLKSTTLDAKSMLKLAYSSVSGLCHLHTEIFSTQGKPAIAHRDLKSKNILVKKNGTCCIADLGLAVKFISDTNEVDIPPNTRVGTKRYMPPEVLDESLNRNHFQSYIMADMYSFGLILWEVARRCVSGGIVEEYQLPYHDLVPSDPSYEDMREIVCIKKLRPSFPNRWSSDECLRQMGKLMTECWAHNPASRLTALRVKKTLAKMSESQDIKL
Chain of ALK1 (P37023 22-503): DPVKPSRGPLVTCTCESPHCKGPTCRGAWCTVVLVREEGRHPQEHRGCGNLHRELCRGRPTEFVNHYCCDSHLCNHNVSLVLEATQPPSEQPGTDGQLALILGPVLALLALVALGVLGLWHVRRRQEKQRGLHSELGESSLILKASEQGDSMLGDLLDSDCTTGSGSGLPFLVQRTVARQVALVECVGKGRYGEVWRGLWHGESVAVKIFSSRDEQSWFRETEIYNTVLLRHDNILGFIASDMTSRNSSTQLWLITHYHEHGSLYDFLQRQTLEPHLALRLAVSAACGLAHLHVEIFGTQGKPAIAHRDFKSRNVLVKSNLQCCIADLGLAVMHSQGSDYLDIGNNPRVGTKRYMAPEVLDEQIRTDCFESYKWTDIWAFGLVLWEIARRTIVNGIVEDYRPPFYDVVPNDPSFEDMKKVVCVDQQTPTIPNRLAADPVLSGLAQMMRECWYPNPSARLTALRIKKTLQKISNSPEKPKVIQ
Chain of ALK3 (P36894 24-532): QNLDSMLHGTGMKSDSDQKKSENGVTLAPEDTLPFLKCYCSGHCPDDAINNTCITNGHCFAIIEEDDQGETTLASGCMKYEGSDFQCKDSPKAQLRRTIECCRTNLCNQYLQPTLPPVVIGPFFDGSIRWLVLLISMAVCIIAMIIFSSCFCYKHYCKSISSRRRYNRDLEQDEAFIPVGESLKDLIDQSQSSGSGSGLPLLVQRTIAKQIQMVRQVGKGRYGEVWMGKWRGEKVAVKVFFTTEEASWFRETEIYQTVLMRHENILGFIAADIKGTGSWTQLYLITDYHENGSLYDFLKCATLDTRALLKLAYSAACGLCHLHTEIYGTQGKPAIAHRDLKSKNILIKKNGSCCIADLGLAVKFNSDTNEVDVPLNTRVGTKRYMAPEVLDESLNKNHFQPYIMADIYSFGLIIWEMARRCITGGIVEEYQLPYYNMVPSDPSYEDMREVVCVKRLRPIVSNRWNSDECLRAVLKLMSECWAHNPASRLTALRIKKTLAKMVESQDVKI
Protocol for ALK1: (§1) Briefly, the ALKs enzymatic assay was initiated by dispense 2.5 μl enzyme in 1× kinase reaction buffer. The assay plate was then added with compounds followed by incubation at room temperature for 10 minutes. Then 2.5 μl/well substrate was added.
Protocol for ALK2: as §1
Protocol for ALK3: as §1
Protocol for ALK4: as §1
Protocol for ALK5: Six ALK kinase enzyme assays were developed for determination of compound activities on ALK1, ALK2, ALK3, ALK4, ALK5 and ALK6.
as §1
Protocol for ALK6: as §1

The term IC50 denotes the concentration that inhibits the measured activity by half. As for `CC(O)c1cccc(-c2cnn3cc(-c4ccc(OCCN5CCCC5)cc4)cnc23)c1` (centres unmarked) [Compound 145, 1-(3-(6-(4-(2-(pyrrolidin-1-yl)ethoxy)phenyl)pyrazolo[1,5-a]pyrimidin-3-yl)phenyl)ethanol], the IC50 was 1 µM against ALK1; > 10 µM at ALK6; 0.063 µM on ALK2; > 10 µM against ALK5; > 10 µM against ALK4; 2.6 µM against ALK3.

For `CC(O)c1cccc(-c2cnn3cc(-c4ccc(CCN5CCCC5)cc4)cnc23)c1` (centres unmarked) [Compound 146, 1-(3-(6-(4-(2-(pyrrolidin-1-yl)ethyl)phenyl)pyrazolo[1,5-a]pyrimidin-3-yl)phenyl)ethanol], the IC50 was 1.4 µM on ALK1; > 10 µM at ALK6; 0.22 µM against ALK2; > 10 µM at ALK5; > 10 µM against ALK4; 8 µM on ALK3.

Turning to `NS(=O)(=O)c1ccc(-c2cnn3cc(-c4ccc(OC5(CN6CCCCC6)CC5)cc4)cnc23)c2ccccc12` [Compound 208, 4-(6-(4-(1-(piperidin-1-ylmethyl)cyclopropoxy)phenyl)pyrazolo[1,5-a]pyrimidin-3-yl)naphthalene-1-sulfonamide], the concentration for half-maximal inhibition (IC50) against ALK1 is 0.2 µM; on ALK6, > 10 µM; against ALK2, 0.015 µM; against ALK5, > 10 µM; on ALK4, > 10 µM; against ALK3 it was > 10 µM.

Regarding `CC(O)c1cccc(-c2cnn3cc(-c4ccc(OC5(CN6CCOCC6)CC5)cc4)cnc23)c1` (centres unmarked) [Compound 177, 1-(3-(6-(4-(1-(morpholinomethyl)cyclopropoxy)phenyl)pyrazolo[1,5-a]pyrimidin-3-yl)phenyl)ethanol], the IC50 against ALK1 is 0.77 µM; against ALK6, > 10 µM; at ALK2, 0.045 µM; against ALK5, > 10 µM; on ALK4 it was > 10 µM; at ALK3 it was 0.89 µM.

For `C[C@H](O)c1cccc(-c2cnn3cc(-c4ccc(OC5(CN6CCCCC6)CC5)cc4)cnc23)c1` [Compound 199, (S)-1-(3-(6-(4-(1-(piperidin-1-ylmethyl)cyclopropoxy)phenyl)pyrazolo[1,5-a]pyrimidin-3-yl)phenyl)ethanol], the 50% inhibitory concentration (IC50) on ALK1 was 0.61 µM; against ALK6, 9.8 µM; against ALK2, 0.025 µM; at ALK5 it was > 10 µM; on ALK4 it was > 10 µM; against ALK3, 0.62 µM.

For `NS(=O)(=O)c1ccc(-c2cnn3cc(-c4ccc(OC(F)(F)CN5CCCCC5)cc4)cnc23)c2ccccc12` [Compound 206, 4-(6-(4-(1,1-difluoro-2-(piperidin-1-yl)ethoxy)phenyl)pyrazolo[1,5-a]pyrimidin-3-yl)naphthalene-1-sulfonamide], the half-inhibitory concentration (IC50) was 4.6 µM against ALK1; > 10 µM on ALK6; 1.2 µM against ALK2; > 10 µM against ALK5; > 10 µM against ALK4; > 10 µM against ALK3.

For `NC1(c2ccc(-c3cnc4c(-c5ccc(S(N)(=O)=O)c6ccccc56)cnn4c3)cc2)CNC1` [Compound 209, 4-(6-(4-(3-aminoazetidin-3-yl)phenyl)pyrazolo[1,5-a]pyrimidin-3-yl)naphthalene-1-sulfonamide], the IC50 against ALK1 was 0.34 µM; at ALK6 it was > 10 µM; on ALK2 it was 0.069 µM; against ALK5, > 10 µM; against ALK4 it was > 10 µM; on ALK3 it was > 10 µM.

As for `Cc1cc(-c2cnn3cc(-c4ccc(N5[C@H](C)CNC[C@@H]5C)cc4)cnc23)ccc1S(N)(=O)=O` [Compound 37, 4-(6-(4-((2R,6S)-2,6-dimethylpiperazin-1-yl)phenyl)pyrazolo[1,5-a]pyrimidin-3-yl)-2-methylbenzenesulfonamide], at ALK1, the 50% inhibitory concentration (IC50) came to 0.811 µM.

Consider `CS(=O)(=O)c1cccc(-c2cnn3cc(-c4ccc(OC5(CN6CCNCC6)CC5)cc4)cnc23)c1` [Compound 169, 3-(3-(methylsulfonyl)phenyl)-6-(4-(1-(piperazin-1-ylmethyl)cyclopropoxy)phenyl)pyrazolo[1,5-a]pyrimidine], for which the IC50 against ALK1 was 0.28 µM; against ALK6, 5.7 µM; at ALK2, 0.052 µM; on ALK5 it was > 10 µM; against ALK4, > 10 µM; against ALK3, 1.5 µM.

On to `C[C@@H]1CNC[C@H](C)N1c1ccc(-c2cnc3c(-c4ccc(S(N)(=O)=O)cc4)cnn3c2)cc1` [Compound 38, 4-(6-(4-((2R,6S)-2,6-dimethylpiperazin-1-yl)phenyl)pyrazolo[1,5-a]pyrimidin-3-yl)benzenesulfonamide], for which the midpoint of inhibition against ALK1, the IC50, lay at 1.79 µM.

As for `NC(c1cccc(-c2cnn3cc(-c4ccc(OC5(CN6CCC(O)C6)CC5)cc4)cnc23)c1)C(F)(F)F` (centres unmarked) [Compound 182, 1-((1-(4-(3-(3-(1-amino-2,2,2-trifluoroethyl)phenyl)pyrazolo[1,5-a]pyrimidin-6-yl)phenoxy)cyclopropyl)methyl)pyrrolidin-3-ol], the IC50 at ALK1 was 2 µM; at ALK6, > 10 µM; at ALK2, 0.12 µM; on ALK5 it was > 10 µM; on ALK4, > 10 µM; against ALK3 it was 4.9 µM.

`C[C@@H]1CNC[C@H](C)N1c1ccc(-c2cnc3c(-c4ccc(F)c(-c5nnn[nH]5)c4)cnn3c2)cc1` [Compound 72, 6-(4-((2R,6S)-2,6-dimethylpiperazin-1-yl)phenyl)-3-(4-fluoro-3-(1H-tetrazol-5-yl)phenyl)pyrazolo[1,5-a]pyrimidine]: the 50% inhibitory concentration (IC50) on ALK1 is 0.12 µM; on ALK6, 0.33 µM; against ALK2 it was 0.016 µM; against ALK5, > 10 µM; at ALK4, > 10 µM; on ALK3 it was 0.22 µM.

Turning to `Cc1cc(S(N)(=O)=O)ccc1-c1cnn2cc(-c3ccc(N4[C@H](C)CNC[C@@H]4C)cc3)cnc12` [Compound 36, 4-(6-(4-((2R,6S)-2,6-dimethylpiperazin-1-yl)phenyl)pyrazolo[1,5-a]pyrimidin-3-yl)-3-methylbenzenesulfonamide], the half-maximal inhibitory concentration (IC50) at ALK1 stood at 9.48 µM; against ALK2, 3.04 µM.

Take `c1ccc2c(-c3cnn4cc(-c5ccc(N6CCNCC6)cc5)cnc34)ccnc2c1` [Compound A, reference compound]: the “activity in the higher ATP concentrations (concentration-response curves)” value at ALK1 (ALK1, in the presence of 10, 100, or 1,000 µM ATP, FIG. 3) is given as “reduced”; at ALK2 (ALK2, in the presence of 10, 100, or 1,000 µM ATP, FIG. 3) it was “reduced”.

As for `C[C@@H]1CNC[C@H](C)N1c1ccc(-c2cnc3c(-c4cccc5c(-c6nn[nH]n6)cccc45)cnn3c2)cc1` [Compound 28, 3-(5-(1H-tetrazol-5-yl)naphthalen-1-yl)-6-(4-((2R,6S)-2,6-dimethylpiperazin-1-yl)phenyl)pyrazolo[1,5-a]pyrimidine], the IC50 worked out at 0.133 µM on ALK1, 0.113 µM against ALK6, 0.023 µM against ALK2 and 0.168 µM against ALK3.

On to `CC(N)c1ccc(-c2cnc3c(-c4ccc(S(N)(=O)=O)c5ccccc45)cnn3c2)cc1` (centres unmarked) [Compound 189, 4-(6-(4-(1-aminoethyl)phenyl)pyrazolo[1,5-a]pyrimidin-3-yl)naphthalene-1-sulfonamide], for which the half-inhibitory concentration (IC50) on ALK1 is 0.35 µM; against ALK6 it was > 10 µM; against ALK5, > 10 µM; against ALK4, > 10 µM.
